Measurements reported in ChEMBL document CHEMBL5518246, “Discovery of Small Molecule Interleukin 17A Inhibitors with Novel Binding Mode and Stoichiometry: Optimization of DNA-Encoded Chemical Library Hits to In Vivo Active Compounds” (J Med Chem, 2024).
In brackets after ≈: the same amount, converted by molar mass.

Experiments:
[1] = Plasma clearance in iv dosed CD-1 mouse measured after 24 hrs; assay type: ADME, organism-based
[2] = Metabolic stability in human liver microsomes assessed as unbound intrinsic clearance at 0.5 uM measured after 4 hrs; assay type: ADME, Microsome
[3] = Thermodynamic solubility of the compound at pH 7.4 measured after 48 hrs by UHPLC analysis; assay type: physicochemical; conditions: buffer, read-out: Therm_solubility
[4] = Oral bioavailability in mouse at 10 mg/kg; assay type: ADME, organism-based; conditions: in vivo
[5] = Unbound plasma clearance in iv dosed CD-1 mouse measured after 24 hrs; assay type: ADME, organism-based; conditions: in vivo
[6] = Oral bioavailability in mouse at 1 mg/kg; assay type: ADME, organism-based; conditions: in vivo
[7] = Volume of distribution at steady-state in Sprague-Dawley rat at 1 mg/kg, iv measured after 24 hrs; assay type: ADME, organism-based; conditions: in vivo, read-out: Vdss
[8] = Half life in Sprague-Dawley rat at 1 mg/kg, iv measured after 24 hrs; assay type: ADME, organism-based; conditions: in vivo
[9] = Unbound plasma clearance in Sprague-Dawley rat at 1 mg/kg, iv measured after 24 hrs; assay type: ADME, organism-based; conditions: in vivo
[10] = Metabolic stability in rat liver microsomes assessed as unbound intrinsic clearance; assay type: ADME, Microsome
[11] = Thermodynamic solubility of the compound in FaSSIF at pH 6.5 after 48 hrs by UHPLC analysis; assay type: ADME; conditions: read-out: Therm_solubility
[12] = Plasma clearance in Sprague-Dawley rat at 1 mg/kg, iv measured after 24 hrs; assay type: ADME, organism-based
[13] = Drug uptake in IL17A-induced CXCL1 secretion in C57BL/6 mouse at 10 mg/kg, iv pretreated 1 hr before IL17A challenge measured after 2 hrs; assay type: ADME, organism-based; conditions: in vivo, read-out: Drug uptake

Row | Compound | clearance [1] | CL free [2] | solubility thermodynamic at 48 h [3] | bioavailability [4] | CL free [5] | bioavailability [6] | Vd [7] | half-life [8] | CL free [9] | CL free [10] | solubility thermodynamic at 48 h [11] | clearance [12] | concentration at 1 h [13]
1 | C[C@H](NC(=O)[C@]1(NC(=O)c2cc(Cl)c(Cl)[nH]2)CO[C@H](c2ccccc2)C1)c1cn2c(=O)n(C)cc(F)c2n1 | 33.3 mL/min/kg | 3.7 L/h/kg | 0.82 µM (≈ 0.46 µg/mL) | 22% | 110 L/h/kg | – | – | – | – | – | – | – | –
2 | O=C(N[C@@H](CCc1ccccc1)C(=O)NCc1ncc2c(n1)CCC2)c1cc(Cl)c(Cl)[nH]1 | – | 66 L/h/kg | 27 µM (≈ 12.8 µg/mL) | – | – | – | – | – | – | – | – | – | –
3 | C[C@H](NC(=O)[C@H](CCc1ccccc1)NC(=O)c1cc(Cl)c(Cl)[nH]1)c1cn2c(=O)n(C)cc(F)c2n1 | 45 mL/min/kg | 9.8 L/h/kg | 4.5 µM (≈ 2.4 µg/mL) | – | 290 L/h/kg | 1.6% | – | – | – | – | – | – | –
4 | C[C@H](NC(=O)[C@]1(NC(=O)c2cc(Cl)c(Cl)[nH]2)CO[C@H](c2ccccc2)C1)c1ncc2c(n1)CN(C1CCN(C)CC1)C2 | – | < 2.7 L/h/kg | > 1000 µM | – | – | – | 5 L/kg | 216 min | 6.1 L/h/kg | < 4.6 L/h/kg | 460 µg/mL (≈ 751 µM) | 18.3 mL/min/kg | 108 ng/mL
5 | O=C(N[C@@H](CCc1ccccc1)C(=O)NCc1ncc(C2CCOCC2)cn1)c1cc(Cl)c(Cl)[nH]1 | – | 20 L/h/kg | 2.5 µM (≈ 1.29 µg/mL) | – | – | – | – | – | – | – | – | – | –
6 | COCc1ccc([C@@H]2C[C@](NC(=O)c3cc(Cl)c(Cl)[nH]3)(C(=O)N[C@@H](C)c3ncc4c(n3)CN(C3CCN(C)CC3)C4)CO2)cc1 | – | < 1.9 L/h/kg | 60 µM (≈ 39.4 µg/mL) | – | – | – | 3.2 L/kg | 90 min | 15 L/h/kg | < 3.2 L/h/kg | – | 33.3 mL/min/kg | 85 ng/mL
7 | C[C@H](NC(=O)[C@]1(NC(=O)c2cc(Cl)c(Cl)[nH]2)CO[C@H](c2ccccc2)C1)c1ncc2c(n1)COC2 | – | 7.9 L/h/kg | 17 µM (≈ 8.78 µg/mL) | – | – | – | 1.4 L/kg | 28.2 min | 86 L/h/kg | 65 L/h/kg | 16 µg/mL (≈ 31 µM) | 46.7 mL/min/kg | 190 ng/mL
8 | CN1Cc2cnc(CNC(=O)[C@H](CCc3ccccc3)NC(=O)c3cc(Cl)c(Cl)[nH]3)nc2C1 | – | 8.4 L/h/kg | 1.8 µM (≈ 0.877 µg/mL) | – | – | – | – | – | – | – | – | – | –
9 | C[C@H](NC(=O)[C@]1(NC(=O)c2cc(Cl)c[nH]2)CO[C@H](c2ccccc2)C1)c1ncc2c(n1)CN(C1CCN(C)CC1)C2 | – | < 2.1 L/h/kg | 120 µM (≈ 69.4 µg/mL) | – | – | – | 5.9 L/kg | 198 min | 2.9 L/h/kg | < 3.6 L/h/kg | 630 µg/mL (≈ 1090 µM) | 21.7 mL/min/kg | 68 ng/mL
10 | O=C(N[C@@H](CCc1ccccc1)C(=O)NCc1ncc2c(n1)COC2)c1cc(Cl)c(Cl)[nH]1 | – | 11 L/h/kg | 8 µM (≈ 3.79 µg/mL) | – | – | – | – | – | – | – | – | – | –
11 | C[C@H](NC(=O)[C@]1(NC(=O)c2cc(Cl)c(Cl)[nH]2)CO[C@H](c2ccc(F)cc2)C1)c1ncc2c(n1)CN(C1CCN(C)CC1)C2 | – | < 2.2 L/h/kg | 510 µM (≈ 322 µg/mL) | – | – | – | 6.4 L/kg | 210 min | 8.2 L/h/kg | – | – | 21.7 mL/min/kg | 139 ng/mL
